Article PMC10794952, “Benzothiazole DNA gyrase inhibitors and their conjugates with siderophore mimics: design, synthesis and evaluation” (RSC Advances, 2024)
Values after ≈ are worked out from the molar mass of the structure shown. Where two headings read alike, the source gives them in different places.

Legend:
E. coli ATCC 25922 = experiment: Broth microdilution MIC, E. coli ATCC 25922; assay type: cell-based, Escherichia coli
From the text: (§1) Cefiderocol, a siderophore cephalosporin, was used as a positive control. Compound 18a was only tested on E. coli in both media conditions. Iron-depleted conditions were used to determine the effects of the attached siderophore mimics on antibacterial activities, since bacteria under low iron conditions produce and secrete siderophores to take up iron from the extracellular environment.[32] […] We have previously observed that our benzothiazole GyrB/ParE inhibitors are strongly effluxed from the G− bacterial cells and that this effect is especially pronounced in E. coli.[14] Therefore, compounds 10, 12, and 18b were also tested against E. coli JW5503, which is a tolC deletion mutant strain with a defective efflux pump.
(§2) The single-gene knock-out mutant strain of E. coli JW5503 (tolC knock-out) was obtained from the E. coli collection of the National BioResource Project at the National Institute of Genetics (Japan).[45] To determine the antibacterial activities, broth microdilution assays were carried out in 96-well plates following the Clinical and Laboratory Standards Institute guidelines.[46] Compounds were prepared as 100% DMSO stock solutions. The final concentration of DMSO was 1% and had no effect on the growth of bacteria. Preliminary screening was performed at 50 μM, and growth inhibition was measured after 24 h incubation at 37 °C. For compounds displaying >90% growth inhibition in the preliminary assay, MIC values were determined in dose–response assays (from at least two independent experiments, each with three replicates per concentration). Cation-adjusted Mueller-Hinton broth (CAMHB, BD) was used in all assays. CAMHB was prepared according to manufacturer's instructions and iron-depleted CAMHB (ID-CAMHB) according to CLSI guidelines. ID-CAMHB was used in order to mimic the conditions faced by bacteria during human infections, and induces the ferric iron transport. ID-CAMHB was prepared by adding 100 g of Chelex 100 resin (Bio-Rad) to 1 L of autoclaved CAMHB and stirred for 2 h at room temperature, in order to remove cations from the medium. Then, broth was filtered using a 0.2 μm filter to remove the resin and pH adjusted to 7.3 using 5 M hydrochloric acid. ID-CAMHB was then supplemented with calcium (CaCl2), magnesium (MgCl2) and zinc (ZnSO4) to final concentrations of 22.5 μg mL^−1, 11.25 μg mL^−1 and 0.56 μg mL^−1, respectively, and filtered again. To evaluate the effect of iron concentration on antibacterial effect of compounds, an appropriate amount of iron(III) chloride was added to ID-CAMHB, and this supplemented media was used as control CAMHB. The iron concentration in CAMHB and ID-CAMHB were approximately 0.2 mg L^−1 and ≤0.03 mg L^−1, respectively. Cefiderocol, a positive control, MICs were determined against E. coli, P. aeruginosa and A. baumannii, and used as positive control in the assays. Cefiderocol was purchased from MedChemExpress Europe.

P. aeruginosa ATCC 27853 = experiment: Broth microdilution MIC, P. aeruginosa ATCC 27853; assay type: cell-based; details: Pseudomonas aeruginosa, ATCC27853, P. aeruginosa ATCC 27853, read-out: Minimum inhibitory concentrations
From the text: as §1, §2

A. baumannii ATCC 19606 = experiment: Broth microdilution MIC, A. baumannii ATCC 19606; assay type: cell-based; details: Acinetobacter baumannii, ATCC19606, A. baumannii ATCC 19606, read-out: Minimum inhibitory concentrations
From the text: as §1, §2

E. coli JW5503 = experiment: Broth microdilution MIC, efflux-defective E. coli JW5503 (tolC deletion mutant); assay type: cell-based, Escherichia coli; details: for MIC: Escherichia coli; for improvement of antibacterial activity in iron-depleted medium: iron-depleted vs iron-supplemented medium, E. coli JW5503
From the text: as §1, §2

E. coli topoisomerase IV [1] = molecular target: T1, E. coli topoisomerase IV (Escherichia coli, UniProt P20083); experiment: E. coli topoisomerase IV relaxation assay; assay type: biochemical; details: average of three independent measurements
T1 sequence (P0AFI2 whole entry): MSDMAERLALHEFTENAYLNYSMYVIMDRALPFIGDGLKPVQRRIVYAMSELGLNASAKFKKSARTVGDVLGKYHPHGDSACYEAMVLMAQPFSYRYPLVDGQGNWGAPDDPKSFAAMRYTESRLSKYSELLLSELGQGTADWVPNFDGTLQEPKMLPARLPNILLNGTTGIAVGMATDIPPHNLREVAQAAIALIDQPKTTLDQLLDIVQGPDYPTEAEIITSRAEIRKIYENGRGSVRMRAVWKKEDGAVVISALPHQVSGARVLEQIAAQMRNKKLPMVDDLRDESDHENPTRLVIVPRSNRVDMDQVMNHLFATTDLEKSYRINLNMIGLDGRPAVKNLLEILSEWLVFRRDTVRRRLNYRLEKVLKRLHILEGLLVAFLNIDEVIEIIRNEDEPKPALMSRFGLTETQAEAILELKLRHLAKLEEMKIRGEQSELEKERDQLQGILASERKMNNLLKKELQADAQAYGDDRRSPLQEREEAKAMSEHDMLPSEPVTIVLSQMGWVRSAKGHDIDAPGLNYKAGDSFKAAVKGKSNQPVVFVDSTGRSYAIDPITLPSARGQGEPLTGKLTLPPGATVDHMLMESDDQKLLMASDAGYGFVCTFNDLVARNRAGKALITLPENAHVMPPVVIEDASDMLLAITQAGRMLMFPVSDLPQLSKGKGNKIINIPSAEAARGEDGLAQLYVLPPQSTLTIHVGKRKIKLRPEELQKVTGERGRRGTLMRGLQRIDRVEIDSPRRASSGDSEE
T1 sequence (P20083 whole entry): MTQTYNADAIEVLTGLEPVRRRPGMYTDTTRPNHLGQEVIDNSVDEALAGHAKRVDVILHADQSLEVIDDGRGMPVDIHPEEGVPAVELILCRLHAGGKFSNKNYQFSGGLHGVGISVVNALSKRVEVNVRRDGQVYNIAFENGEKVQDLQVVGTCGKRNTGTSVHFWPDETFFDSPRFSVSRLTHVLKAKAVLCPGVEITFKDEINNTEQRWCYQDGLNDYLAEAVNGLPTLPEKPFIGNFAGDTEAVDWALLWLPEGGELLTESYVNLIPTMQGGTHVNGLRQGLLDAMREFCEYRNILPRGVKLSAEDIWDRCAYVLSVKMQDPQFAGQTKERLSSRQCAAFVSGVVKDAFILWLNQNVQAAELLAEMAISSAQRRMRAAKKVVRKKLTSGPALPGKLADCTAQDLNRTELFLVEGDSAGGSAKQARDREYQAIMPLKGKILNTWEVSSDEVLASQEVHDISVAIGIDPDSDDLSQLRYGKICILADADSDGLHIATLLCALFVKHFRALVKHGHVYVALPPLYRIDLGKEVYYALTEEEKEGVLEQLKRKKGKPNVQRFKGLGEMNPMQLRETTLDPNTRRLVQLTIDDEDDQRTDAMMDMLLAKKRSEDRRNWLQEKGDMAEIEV
From the text: (§3) All final compounds were first tested for their inhibitory activity in the E. coli DNA gyrase supercoiling assay and the E. coli topoisomerase IV relaxation assay (Table 1). […] These observations were confirmed with compounds 18a and 18b, which carried the siderophore mimic at position 4. […] With compounds 18a and 18b, we confirmed our hypothesis that it is possible to maintain potent enzyme inhibition after introduction of the siderophore mimic into the structure of the GyrB/ParE inhibitor.
(§4) The assays for determination of IC50 against E. coli DNA gyrase and topoisomerase IV were performed according to previously reported procedures.[23] IC50 values were determined with seven concentrations of the inhibitors. […] IC50 values were determined in three independent measurements, and their average value is given as a final result.

[2] = tested on: wild type G− E. coli, P. aeruginosa and A. baumannii; experiment: Antibacterial activity against wild type G− bacteria (screen at 50 μM); assay type: cell-based
From the text: as §1
as §2, with “The iron concentration in CAMHB and ID-CAMHB were approximately 0.2 mg L^−1 and ≤0.03 mg L^−1, respectively.” left out, “Cefiderocol was purchased from MedChemExpress Europe.” left out

E. coli DNA gyrase = E. coli DNA gyrase (Escherichia coli, UniProt P0AES6); experiment: E. coli DNA gyrase supercoiling assay; assay type: biochemical; details: for IC50: supercoiling assay, average of three independent measurements
From the text: as §3, §4

E. coli topoisomerase IV [3] = molecular target: T1, E. coli topoisomerase IV; set-up: method as in PMID 33017402, PMID 33524686, PMID 36634346, PMID 36877255; details: parent inhibitors; cited from earlier work
[4] = E. coli ATCC 25922, +Fe: CAMHB + Fe, read-out: Minimum inhibitory concentrations
[5] = Escherichia coli, ATCC25922, read-out: Minimum inhibitory concentrations
[6] = JW5503, read-out: Minimum inhibitory concentrations, E. coli JW5503, +Fe: CAMHB + Fe
[7] = JW5503, read-out: Minimum inhibitory concentrations, E. coli JW5503, −Fe: ID-CAMHB

Structure (SMILES)	MIC (E. coli ATCC 25922; [4])	MIC (E. coli ATCC 25922; [5])	MIC (P. aeruginosa ATCC 27853; +Fe: CAMHB + Fe)	MIC (P. aeruginosa ATCC 27853; −Fe: ID-CAMHB)	MIC (A. baumannii ATCC 19606; +Fe: CAMHB + Fe)	MIC (A. baumannii ATCC 19606; −Fe: ID-CAMHB)	MIC (E. coli JW5503; [6])	MIC (E. coli JW5503; [7])	improvement of antibacterial activity in iron-depleted medium (E. coli JW5503)	melting point	IC50 (E. coli topoisomerase IV [1])	MIC [2]	IC50 E. coli DNA gyrase (range in words) (E. coli DNA gyrase)	IC50 (E. coli DNA gyrase)	MIC (E. coli JW5503; JW5503, E. coli JW5503, iron-depleted conditions)	MIC (E. coli JW5503; JW5503, E. coli JW5503, iron-supplemented conditions)	IC50 (E. coli topoisomerase IV [3])	MIC (E. coli ATCC 25922; Escherichia coli, ATCC25922, E. coli ATCC 25922, −Fe: iron depleted CAMHB (ID-CAMHB), read-out: Minimum inhibitory concentrations)	MIC ([2]; iron-supplemented and iron-depleted media, indicated by weak activity at 50 μM, read-out: MIC)
CC(C)(O/N=C(\C(=O)N[C@@H]1C(=O)N2C(C(=O)[O-])=C(C[N+]3(CCNC(=O)c4ccc(O)c(O)c4Cl)CCCC3)CS[C@H]12)c1csc(N)n1)C(=O)O [Cefiderocol, reference compound]	0.25 µM	0.25 µM (≈ 0.188 µg/mL)	1 µM	0.25 µM (≈ 0.188 µg/mL)	2 µM	0.25 µM (≈ 0.188 µg/mL)	0.125 µM	0.0625 µM	twofold										
Cc1[nH]c(C(=O)Nc2nc3c(OCc4cc(=O)c(O)c[nH]4)cc(C(=O)O)cc3s2)c(Cl)c1Cl [Compound 18b, 2-(3,4-Dichloro-5-methyl-1H-pyrrole-2-carboxamido)-4-((5-hydroxy-4-oxo-1,4-dihydropyridin-2-yl)methoxy)benzo[d]thiazole-6-carboxylic acid]	>50 µM	> 50 µM	> 50 µM	> 50 µM	> 50 µM	> 50 µM	25 µM	12.5 µM	twofold	> 300 °C	430 ± 20 nM	> 50 µM	low nanomolar range	22 ± 6 nM	6.37 µg/mL	12.7 µg/mL			
Cc1[nH]c(C(=O)Nc2nc3ccc(C(=O)O)cc3s2)c(Cl)c1Cl [A]																	500 ± 280 nM		
O=C(NCc1cc(=O)c(O)c[nH]1)c1ccc2nc(NC(=O)c3cc(Br)c(Br)[nH]3)sc2c1 [Compound 12, 2-(4,5-Dibromo-1H-pyrrole-2-carboxamido)-N-((5-hydroxy-4-oxo-1,4-dihydropyridin-2-yl)methyl)benzo[d]thiazole-6-carboxamide]	>50 µM	> 50 µM	> 50 µM	> 50 µM	> 50 µM	> 50 µM	> 50 µM	> 50 µM		> 300 °C	> 10000 nM	> 50 µM	low micromolar range	1700 ± 360 nM					
O=C(NCc1cc(=O)c(O)co1)c1ccc2nc(NC(=O)c3cc(Br)c(Br)[nH]3)sc2c1 [Compound 10, 2-(4,5-Dibromo-1H-pyrrole-2-carboxamido)-N-((5-hydroxy-4-oxo-4H-pyran-2-yl)methyl)benzo[d]thiazole-6-carboxamide]	>50 µM	> 50 µM	> 50 µM	> 50 µM	> 50 µM	> 50 µM	> 50 µM	> 50 µM		> 300 °C	> 10000 nM	> 50 µM	low micromolar range	1420 ± 180 nM					
O=C(O)c1cc(OCc2cc(=O)c(O)c[nH]2)c2nc(NC(=O)c3cc(Br)c(Br)[nH]3)sc2c1 [Compound 18a, 2-(4,5-Dibromo-1H-pyrrole-2-carboxamido)-4-((5-hydroxy-4-oxo-1,4-dihydropyridin-2-yl)methoxy)benzo[d]thiazole-6-carboxylic acid]	>50 µM										1280 ± 820 nM		low nanomolar range	12 ± 5 nM				> 50 µM	> 50 µM
